Measured values published in ChEMBL document CHEMBL4270488, “Antibacterial Compounds from Marine Bacteria, 2010-2015” (J Nat Prod, 2017).
≈ marks a conversion by molar mass, not a printed value. Where a SMILES comes first, the peptide text is derived from it. Bridges are numbered along the chain shown (N, C = ends). [ ]: non-standard residue; d: D form. The star is where a group is joined. ξ: configuration not given here. NMeLeu(3ξ-Me) = CN[C@H](C(=O)O)C(C)C(C)C; d(cisHyp) = O=C(O)[C@H]1C[C@@H](O)CN1; Picolinoyl(3-OH) = O=C(c1ncccc1O)*; NMePhg = CN[C@H](C(=O)O)c1ccccc1; Sar = CNCC(=O)O

Columns and labels:
[1] = test system: Staphylococcus aureus; assay: Antibacterial activity against community associated methicillin-resistant Staphylococcus aureus incubated for 18 to 20 hrs by microbroth dilution method; type: functional
[2] = test system: Staphylococcus aureus; assay: Antibacterial activity against hospital associated methicillin-resistant Staphylococcus aureus incubated for 18 to 20 hrs by microbroth dilution method; type: functional
[3] = test system: Streptococcus pyogenes; assay: Antibacterial activity against Streptococcus pyogenes incubated for 18 to 20 hrs by microbroth dilution method; type: functional
[4] = test system: Streptococcus agalactiae; assay: Antibacterial activity against Streptococcus agalactiae incubated for 18 to 20 hrs by microbroth dilution method; type: functional
[5] = test system: Enterococcus faecalis; assay: Antibacterial activity against Enterococcus faecalis incubated for 18 to 20 hrs by microbroth dilution method; type: functional
[6] = test system: Moraxella catarrhalis; assay: Antibacterial activity against Moraxella catarrhalis incubated for 18 to 20 hrs by microbroth dilution method; type: functional
[7] = test system: Haemophilus influenzae; assay: Antibacterial activity against Haemophilus influenzae incubated for 18 to 20 hrs by microbroth dilution method; type: functional
[8] = test system: Staphylococcus aureus; assay: Antibacterial activity against methicillin-resistant Staphylococcus aureus by CLSI method; type: functional
[9] = test system: Enterococcus; assay: Antibacterial activity against Enterococcus VRE-CUS by CLSI method; type: functional
[10] = test system: Enterococcus; assay: Antibacterial activity against Enterococcus VRE-WMC by CLSI method; type: functional
[11] = test system: Moraxella catarrhalis; assay: Antibacterial activity against Moraxella catarrhalis ATCC 25238 by CLSI method; type: functional
[12] = test system: Clostridioides difficile; assay: Antibacterial activity against Clostridioides difficile BI/NAP1/O27 by agar dilution method; type: functional
[13] = test system: Escherichia coli; assay: Antibacterial activity against Escherichia coli by CLSI method; type: functional
[14] = test system: Pseudomonas aeruginosa; assay: Antibacterial activity against Pseudomonas aeruginosa ATCC 27853 by CLSI method; type: functional
[15] = test system: Enterococcus faecalis; assay: Antibacterial activity against Enterococcus faecalis ATCC 19433 by broth microdilution assay; type: functional
[16] = test system: Haemophilus influenzae; assay: Antibacterial activity against Haemophilus influenzae ATCC 49247 by broth microdilution assay; type: functional
[17] = test system: Escherichia coli; assay: Antibacterial activity against Escherichia coli D21f2tolC by broth microdilution assay; type: functional
[18] = Inhibition of Staphylococcus aureus RNA polymerase
[19] = Inhibition of Escherichia coli RNA polymerase
[20] = test system: Bacillus anthracis; assay: Antibacterial activity against Bacillus anthracis UM23C1-1 by microplate assay; type: functional
[21] = test system: Staphylococcus aureus; assay: Antibacterial activity against Staphylococcus aureus ATCC 13709 by microplate assay; type: functional
[22] = test system: Enterococcus faecalis; assay: Antibacterial activity against Enterococcus faecalis ATCC 29212 by microplate assay; type: functional
[23] = test system: Streptococcus pneumoniae; assay: Antibacterial activity against Streptococcus pneumoniae ATCC 51916 by microplate assay; type: functional
[24] = test system: Staphylococcus aureus; assay: Antibacterial activity against methicillin-resistant Staphylococcus aureus infected in CD1 mouse assessed as mouse survival rate at 10 mg/kg; type: functional
[25] = test system: Staphylococcus aureus; assay: Antibacterial activity against methicillin-sensitive Staphylococcus aureus; type: functional
[26] = test system: Moraxella catarrhalis; assay: Antibacterial activity against Moraxella catarrhalis; type: functional
[27] = test system: Staphylococcus aureus; assay: Antibacterial activity against methicillin-resistant Staphylococcus aureus ATCC 43300; type: functional
[28] = test system: Staphylococcus aureus; assay: Antibacterial activity against Staphylococcus aureus […]; type: functional
[29] = test system: Enterococcus faecium; assay: Antibacterial activity against Enterococcus faecium CCUG 37832 incubated for 18 hrs by WST1 assay; type: functional; conditions: CCUG 37832, 18 h
[30] = test system: Enterococcus faecium; assay: Antibacterial activity against Enterococcus faecium CTC 492 incubated for 18 hrs by WST1 assay; type: functional; conditions: CTC 492, 18 h

SMILES: CC(C)C[C@H]1NC(=O)[C@@H](NC(=O)c2ncccc2O)[C@@H](C)OC(=O)[C@H](c2ccccc2)N(C)C(=O)[C@H](C)NC(=O)[C@H](C(C)C(C)C)N(C)C(=O)CN(C)C(=O)[C@H]2C[C@@H](O)CN2C1=O (stereo partly drawn) [VIRIFOGRISEIN I] ({Picolinoyl(3-OH)}-T[dL][d(cisHyp)][Sar][NMeLeu(3ξ-Me)]A[NMePhg]; ester 1-C)
- MIC [1]: 1 to 2 µg/mL (≈ 1.14 to 2.28 µM)
- MIC [2]: 1 to 2 µg/mL (≈ 1.14 to 2.28 µM)
- MIC [3]: 8 µg/mL (≈ 9.1 µM)
- MIC [4]: 8 µg/mL (≈ 9.1 µM)
- MIC [5]: 16 µg/mL (≈ 18.2 µM)
- MIC [6]: 1 µg/mL (≈ 1.14 µM)
- MIC [7]: 16 µg/mL (≈ 18.2 µM)

SMILES: C=C(NC(=O)c1csc(-c2nc3c(cc2O)-c2nc(cs2)C(=O)N[C@@H]([C@@H](C)O)C(=O)N/C(=C/C)c2nc(cs2)C(=O)N[C@H]2C[C@H](O)C(=O)OCc4cccc5[nH]c(c(C)c45)C(=O)SC[C@H](NC(=O)c4csc2n4)c2nc-3cs2)n1)C(N)=O
- MIC [8]: 0.03 to 0.25 µg/mL (≈ 0.0245 to 0.205 µM)
- MIC [9]: 0.12 µg/mL (≈ 0.0982 µM)
- MIC [10]: 0.12 µg/mL (≈ 0.0982 µM)
- MIC [11]: 0.5 µg/mL (≈ 0.409 µM)
- MIC [12]: 0.01 µg/mL (≈ 0.00818 µM)
- MIC [13]: > 4 µg/mL
- MIC [14]: > 4 µg/mL

SMILES: CC[C@H](C)[C@H]1NC(=O)[C@@H](NC(=O)[C@H](C)[C@H](O)C(C)C)[C@@H](C)OC(=O)[C@H]2NC(=O)[C@@H](C(C)C)NC(=O)[C@@H](Cc3ccccc3)N(C)C(=O)[C@@H](NC1=O)c1ccc(cc1)O[C@H](C)[C@@](O)(CO)/C=C\C(=O)NCC(=O)O2
- MIC [15]: 12 µg/mL (≈ 11.7 µM)
- MIC [16]: 12 µg/mL (≈ 11.7 µM)
- MIC [17]: 0.2 µg/mL (≈ 0.196 µM)
- IC50 [18]: 200 to 4000 nM
- IC50 [19]: 200 to 2000 nM

SMILES: CC1=CC[C@@H]2[C@H]3/C(O)=C/C(=O)[C@@H](C)C(=O)O[C@H](C)/C=C/C=C\[C@@H](C)[C@H]3C=C[C@H]2C1
- MIC [20]: 0.03 µg/mL (≈ 0.0757 µM)
- MIC [21]: 0.06 to 0.25 µg/mL (≈ 0.151 to 0.63 µM)
- MIC [22]: 0.06 to 0.25 µg/mL (≈ 0.151 to 0.63 µM)
- MIC [23]: 0.06 to 0.25 µg/mL (≈ 0.151 to 0.63 µM)
- survival at 10 mg/kg [24]: 90%
- MIC [25]: ≤ 0.25 µg/mL
- MIC [26]: 4 µg/mL (≈ 10.1 µM)

SMILES: CCCC1(O)CC(=O)c2c(Cc3cc(=O)cc(O)o3)cccc2O1 (stereo not given)
- MIC [27]: 2 µg/mL (≈ 6.05 µM)
- MIC [28]: 16 µg/mL (≈ 48.4 µM)

SMILES: [O-][n+]1c2cccc(O)c2[n+]([O-])c2cccc(O)c21
- MIC [29]: 0.7 µg/mL (≈ 2.87 µM)
- MIC [30]: 0.35 µg/mL (≈ 1.43 µM)
